From patent US20200222391A1, “SOLID PREPARATION OF CARIPRAZINE FOR ORAL ADMINISTRATION” (Richter Gedeon Nyrt., priority 2017, published 2020)
Structures can show the parent of a compound that is named as a salt. Where two headings read alike, the source gives them in different places.

Legend:
[1] = pH-solubility of cariprazine hydrochloride at 37° C.; type: physicochemical
From the text: Cariprazine salts are very well soluble in acidic environment. However, drugs, which are soluble in acidic environment can be practically insoluble in neutral or basic environment.

[2] = Caco-2 model of drug absorption (permeability); type: in vitro ADME; conditions: human, read-out: permeability directional ratio (PDR)
Method: In the Caco-2 model of drug absorption, the permeability coefficients of cariprazine in inward and outward directions were calculated to be 26.4.10-6 cm/sec and 51.2.10-6 cm/sec, respectively (permeability directional ratio (PDR): 1.9) (Artursson P & Karlsson J (1991). “Correlation between oral drug absorption in humans and apparent drug permeability coefficients in human intestinal epithelial (Caco-2) cells”. Biochem Biophys Res Comm 175 (3): 880-5 and internal data).

| SMILES | pH value of best solubility [1] | solubility ([1]; 37 °C, pH 1, simulated gastric fluid, pH 1, read-out: Solubility) | solubility ([1]; 37 °C, pH 2, simulated gastric fluid, pH 2, read-out: Solubility) | solubility ([1]; 37 °C, pH 3, aqueous buffer, pH 3, read-out: Solubility) | solubility ([1]; 37 °C, pH 4, aqueous buffer, pH 4, read-out: Solubility) | solubility ([1]; 37 °C, pH 5, aqueous buffer, pH 5, read-out: Solubility) | solubility ([1]; 37 °C, pH 5.5, aqueous buffer, pH 5.5, read-out: Solubility) | solubility ([1]; 37 °C, pH 6, aqueous buffer, pH 6, read-out: Solubility) | solubility ([1]; 37 °C, pH 7, aqueous buffer, pH 7, read-out: Solubility) | solubility ([1]; pH 1, hydrochloride) | solubility ([1]; pH 7, hydrochloride) | efflux ratio [2] |
| --- | --- | --- | --- | --- | --- | --- | --- | --- | --- | --- | --- | --- |
| CN(C)C(=O)N[C@H]1CC[C@H](CCN2CCN(c3cccc(Cl)c3Cl)CC2)CC1 [cariprazine hydrochloride] | ~3 | 3.26 mg/mL | 8.93 mg/mL | 11 mg/mL | 3.23 mg/mL | 0.351 mg/mL | 0.149 mg/mL | 0.0188 mg/mL | 0.001 mg/mL | 3.2579 mg/mL | 0.0013 mg/mL | – |
| CN(C)C(=O)N[C@H]1CC[C@H](CCN2CCN(c3cccc(Cl)c3Cl)CC2)CC1 [cariprazine, trans-N-{4-[2-[4-(2,3-dichlorophenyl)-piperazin-1-yl]-ethyl]-cyclohexyl}-N′,N′-dimethylurea] | – | – | – | – | – | – | – | – | – | – | – | 1.9 |
